Tests used:
[1] = target: CREB-binding protein (Homo sapiens) (UniProt Q92793); assay: Inhibition of human CBP-BRD at 10 uM relative to control
[2] = target: Mitogen-activated protein kinase kinase kinase kinase 5 (Homo sapiens) (UniProt Q9Y4K4); assay: Inhibition of recombinant full-length human MAP4K5 at 10 uM using myelin basic protein as substrate measured after 40 mins in presence of [gamma33P]ATP by scintillation counting method relative to control
[3] = target: Serine/threonine-protein kinase ULK2 (Homo sapiens) (UniProt Q8IYT8); assay: Inhibition of recombinant human ULK2 (1 to 306 residues) at 10 uM using casein as substrate measured after 40 mins in presence of [gamm33P]ATP by scintillation counting method relative to control
Homo sapiens [4] = species on record: Homo sapiens; assay: Inhibition of recombinant human TEC activated F514V mutant (174 to end residues) at 10 uM using EFPIYDFLPAKKK as substrate measured after 40 mins in presence of [gamm33P]ATP by scintillation counting method relative to control
[5] = target: Mitogen-activated protein kinase kinase kinase 5 (Homo sapiens) (UniProt Q99683); assay: Inhibition of recombinant human ASK1 (649 to 946 residues) at 10 uM using myelin basic protein as substrate measured after 40 mins in presence of [gamma33P]ATP by scintillation counting method relative to control
[6] = target: Serine/threonine-protein kinase PAK 1 (Homo sapiens) (UniProt Q13153); assay: Inhibition of recombinant human PAK1 (150 to end residues) at 10 uM using RRRLSFAEPG as substrate measured after 40 mins in presence of [gamma33P]ATP by scintillation counting method relative to control
[7] = system: Phosphorylase b kinase gamma catalytic chain, liver/testis isoform (Homo sapiens), P15735 [F290L]; assay: Inhibition of recombinant human PhKgamma2 F290L mutant (1 to 301 residues) at 10 uM using KKLNRTLSFAEPG as substrate measured after 40 mins in presence of [gamma33P]ATP by scintillation counting method relative to control
[8] = target: NUAK family SNF1-like kinase 1 (Homo sapiens) (UniProt O60285); assay: Inhibition of recombinant human ARK5 (2 to end residues) at 10 uM using KKKVSRSGLYRSPSMPENLNRPR as substrate measured after 40 mins in presence of [gamma33P]ATP by scintillation counting method relative to control
[9] = target: Serine/threonine-protein kinase 3 (Homo sapiens) (UniProt Q13188); assay: Inhibition of recombinant full-length human MST2 (2 to end residues) at 10 uM using myelin basic protein as substrate measured after 40 mins in presence of [gamma33P]ATP by scintillation counting method relative to control
[10] = target: Death-associated protein kinase 1 (Homo sapiens) (UniProt P53355); assay: Inhibition of recombinant human DAPK1 (1 to 296 residues) at 10 uM using KKLNRTLSFAEPG as substrate after 40 mins by in presence of [gamma33P]ATP by scintillation counting method relative to control
[11] = target: Protein-tyrosine kinase 6 (Homo sapiens) (UniProt Q13882); assay: Inhibition of full-length recombinant human BRK at 10 uM using poly(Glu, Tyr) 4:1 as substrate measured after 40 mins in presence of [gamma33P]ATP by scintillation counting method relative to control
[12] = target: Serine/threonine-protein kinase MAK (Homo sapiens) (UniProt P20794); assay: Inhibition of recombinant full-length human MAK at 10 uM using RRRFRPASPLRGPPK as substrate measured after 120 mins in presence of [gamma33P]ATP by scintillation counting method relative to control
[13] = target: Platelet-derived growth factor receptor beta (Homo sapiens) (UniProt P09619); assay: Inhibition of recombinant human PDGFRbeta (557 to end residues) at 10 uM using poly(Glu, Tyr) 4:1 as substrate measured after 40 mins in presence of [gamma33P]ATP by scintillation counting method relative to control
[14] = target: Insulin receptor (Homo sapiens) (UniProt P06213); assay: Inhibition of recombinant human IR (1005 to 1310 residues) at 10 uM using KKSRGDYMTMQIG as substrate after 40 mins in presence of [gamma33P]ATP by scintillation counting method relative to control
[15] = target: Cyclin-dependent kinase-like 4 (Homo sapiens) (UniProt Q5MAI5); assay: Inhibition of human CDKL4 at 10 uM by radiometric method relative to control
[16] = target: Interleukin-1 receptor-associated kinase 1 (Homo sapiens) (UniProt P51617); assay: Inhibition of recombinant human IRAK1 (194 to end residues) at 10 uM using myelin basic protein as substrate after 40 mins in presence of [gamma33P]ATP by scintillation counting method relative to control
[17] = target: Serine/threonine-protein kinase N2 (Homo sapiens) (UniProt Q16513); assay: Inhibition of human PRK2 (501 to end residues) at 10 uM using AKRRRLSSLRA as substrate measured after 40 mins in presence of [gamma33P]ATP by scintillation counting method relative to control
[18] = target: Fibroblast growth factor receptor 4 (Homo sapiens) (UniProt P22455); assay: Inhibition of recombinant human FGFR4 (442 to 755 residues) at 10 uM using poly(Glu, Tyr) 4:1 as substrate measured after 40 mins in presence of [gamma33P]ATP by scintillation counting method relative to control
Homo sapiens [19] = species on record: Homo sapiens; assay: Inhibition of recombinant human MAPKAPK2 A399G mutant (46 to end residues) at 10 uM using KKLNRTLSVA as substrate measured after 40 mins in presence of [gamma33P]ATP by scintillation counting method relative to control
[20] = target: TGF-beta receptor type-2 (Homo sapiens) (UniProt P37173); assay: Inhibition of recombinant human TGFBR2 (188 to end residues) at 10 uM using myelin basic protein as substrate measured after 120 mins in presence of [gamm33P]ATP by scintillation counting method relative to control
[21] = target: Protein kinase C iota type (Homo sapiens) (UniProt P41743); assay: Inhibition of full-length recombinant human PKCiota at 10 uM using ERMRPRKRQGSVRRRV as substrate after 40 mins by in presence of [gamma33P]ATP by scintillation counting method relative to control
[22] = target: Vascular endothelial growth factor receptor 2 (Homo sapiens) (UniProt P35968); assay: Inhibition of recombinant human KDR (790 to end residues) at 10 uM using myelin basic protein as substrate measured after 40 mins in presence of [gamm33P]ATP by scintillation counting method relative to control
Homo sapiens [23] = species on record: Homo sapiens; assay: Inhibition of recombinant full-length human PI3K p120gamma R459Q mutant at 10 uM using phosphatidylinositol-4, 5-bisphosphate as substrate measured after 40 mins by fluorescence assay relative to control
[24] = target: Serine/threonine-protein kinase Nek1 (Homo sapiens) (UniProt Q96PY6); assay: Inhibition of recombinant human NEK1 (1 to 505 residues) at 10 uM using RLGRDKYKTLRQIRQ as substrate measured after 40 mins in presence of [gamma33P]ATP by scintillation counting method relative to control

Serine/threonine-protein kinase PAK 1 (Homo sapiens), sequence (Q13153 whole entry, the tested form may be a part, canonical isoform): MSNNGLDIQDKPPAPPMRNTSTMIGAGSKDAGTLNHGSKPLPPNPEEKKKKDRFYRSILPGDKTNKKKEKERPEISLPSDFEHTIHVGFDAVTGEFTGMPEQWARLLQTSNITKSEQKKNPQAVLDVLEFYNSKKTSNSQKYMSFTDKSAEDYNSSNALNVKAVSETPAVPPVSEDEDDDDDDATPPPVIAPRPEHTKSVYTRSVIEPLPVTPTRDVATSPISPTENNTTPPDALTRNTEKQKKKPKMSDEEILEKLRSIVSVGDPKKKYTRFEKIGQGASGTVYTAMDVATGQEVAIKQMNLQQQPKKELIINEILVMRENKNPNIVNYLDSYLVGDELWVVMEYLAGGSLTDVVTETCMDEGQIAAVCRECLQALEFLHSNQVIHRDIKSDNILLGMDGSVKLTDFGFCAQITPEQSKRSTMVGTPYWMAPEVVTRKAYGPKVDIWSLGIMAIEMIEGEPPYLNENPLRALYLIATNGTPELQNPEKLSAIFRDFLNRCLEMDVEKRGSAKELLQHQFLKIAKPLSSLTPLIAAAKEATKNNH
Serine/threonine-protein kinase N2 (Homo sapiens), sequence (Q16513 whole entry, looked up, the tested form may be a part): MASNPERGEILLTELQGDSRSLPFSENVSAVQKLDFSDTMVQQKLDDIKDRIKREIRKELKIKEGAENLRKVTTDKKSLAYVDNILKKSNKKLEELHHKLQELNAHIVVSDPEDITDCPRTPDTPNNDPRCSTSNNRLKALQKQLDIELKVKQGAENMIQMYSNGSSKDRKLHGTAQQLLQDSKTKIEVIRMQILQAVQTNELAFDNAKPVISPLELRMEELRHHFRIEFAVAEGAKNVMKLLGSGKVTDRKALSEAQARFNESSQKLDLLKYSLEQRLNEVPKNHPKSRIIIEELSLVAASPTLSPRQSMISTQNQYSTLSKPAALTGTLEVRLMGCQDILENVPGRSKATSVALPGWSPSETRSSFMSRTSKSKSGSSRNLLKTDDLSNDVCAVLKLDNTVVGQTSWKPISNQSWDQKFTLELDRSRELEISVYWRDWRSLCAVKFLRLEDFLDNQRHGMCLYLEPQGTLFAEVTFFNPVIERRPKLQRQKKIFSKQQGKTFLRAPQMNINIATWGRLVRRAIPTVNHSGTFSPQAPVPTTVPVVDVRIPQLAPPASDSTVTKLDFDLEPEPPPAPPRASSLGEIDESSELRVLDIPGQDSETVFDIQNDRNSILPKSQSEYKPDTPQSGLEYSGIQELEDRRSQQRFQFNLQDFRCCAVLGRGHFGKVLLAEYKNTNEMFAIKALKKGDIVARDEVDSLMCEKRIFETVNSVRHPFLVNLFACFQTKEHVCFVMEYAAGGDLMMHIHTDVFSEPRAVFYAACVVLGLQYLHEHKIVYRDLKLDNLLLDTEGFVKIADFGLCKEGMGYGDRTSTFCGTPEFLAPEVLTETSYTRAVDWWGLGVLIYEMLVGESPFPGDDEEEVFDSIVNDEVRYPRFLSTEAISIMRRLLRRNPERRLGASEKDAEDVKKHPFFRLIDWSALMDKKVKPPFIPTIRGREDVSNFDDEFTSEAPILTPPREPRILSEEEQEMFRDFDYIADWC
Insulin receptor (Homo sapiens), sequence (P06213 28-758 limits assumed): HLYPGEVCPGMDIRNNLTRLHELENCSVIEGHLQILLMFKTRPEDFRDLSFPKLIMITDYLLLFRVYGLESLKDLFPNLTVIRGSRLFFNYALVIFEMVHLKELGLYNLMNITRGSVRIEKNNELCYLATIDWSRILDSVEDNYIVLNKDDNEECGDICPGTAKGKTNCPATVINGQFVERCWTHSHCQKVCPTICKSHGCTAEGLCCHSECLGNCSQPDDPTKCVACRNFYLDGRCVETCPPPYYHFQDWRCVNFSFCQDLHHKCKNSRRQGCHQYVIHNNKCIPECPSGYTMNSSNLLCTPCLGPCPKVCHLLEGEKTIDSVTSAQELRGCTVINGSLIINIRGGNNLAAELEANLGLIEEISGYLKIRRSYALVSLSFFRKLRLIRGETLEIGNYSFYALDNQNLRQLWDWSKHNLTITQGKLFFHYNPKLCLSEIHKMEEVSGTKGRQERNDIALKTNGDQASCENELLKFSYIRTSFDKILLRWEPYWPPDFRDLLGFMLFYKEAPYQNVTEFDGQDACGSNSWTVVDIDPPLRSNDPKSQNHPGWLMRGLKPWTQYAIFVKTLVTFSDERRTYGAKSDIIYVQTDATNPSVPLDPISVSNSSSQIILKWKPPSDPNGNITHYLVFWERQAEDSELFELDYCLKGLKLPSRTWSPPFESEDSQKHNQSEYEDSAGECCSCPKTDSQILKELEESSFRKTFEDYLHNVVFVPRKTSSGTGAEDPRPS
Insulin receptor (Homo sapiens), sequence (P06213 763-1382 limits assumed): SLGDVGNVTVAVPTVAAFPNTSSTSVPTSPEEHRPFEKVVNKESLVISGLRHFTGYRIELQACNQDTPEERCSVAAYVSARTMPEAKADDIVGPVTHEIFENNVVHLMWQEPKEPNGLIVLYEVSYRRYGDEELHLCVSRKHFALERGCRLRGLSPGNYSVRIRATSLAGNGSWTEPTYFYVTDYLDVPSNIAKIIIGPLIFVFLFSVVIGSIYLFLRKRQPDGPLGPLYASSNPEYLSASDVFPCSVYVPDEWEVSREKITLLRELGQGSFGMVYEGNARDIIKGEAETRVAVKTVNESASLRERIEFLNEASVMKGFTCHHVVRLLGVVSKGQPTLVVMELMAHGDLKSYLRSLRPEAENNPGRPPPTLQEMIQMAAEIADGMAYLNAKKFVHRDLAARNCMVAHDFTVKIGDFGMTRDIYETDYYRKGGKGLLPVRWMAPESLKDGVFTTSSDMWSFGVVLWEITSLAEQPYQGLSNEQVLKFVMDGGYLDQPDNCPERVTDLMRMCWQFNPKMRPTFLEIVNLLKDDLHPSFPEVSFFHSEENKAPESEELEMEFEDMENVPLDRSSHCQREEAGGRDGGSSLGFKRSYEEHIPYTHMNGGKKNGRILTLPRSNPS
Serine/threonine-protein kinase ULK2 (Homo sapiens), sequence (Q8IYT8 whole entry, the tested form may be a part): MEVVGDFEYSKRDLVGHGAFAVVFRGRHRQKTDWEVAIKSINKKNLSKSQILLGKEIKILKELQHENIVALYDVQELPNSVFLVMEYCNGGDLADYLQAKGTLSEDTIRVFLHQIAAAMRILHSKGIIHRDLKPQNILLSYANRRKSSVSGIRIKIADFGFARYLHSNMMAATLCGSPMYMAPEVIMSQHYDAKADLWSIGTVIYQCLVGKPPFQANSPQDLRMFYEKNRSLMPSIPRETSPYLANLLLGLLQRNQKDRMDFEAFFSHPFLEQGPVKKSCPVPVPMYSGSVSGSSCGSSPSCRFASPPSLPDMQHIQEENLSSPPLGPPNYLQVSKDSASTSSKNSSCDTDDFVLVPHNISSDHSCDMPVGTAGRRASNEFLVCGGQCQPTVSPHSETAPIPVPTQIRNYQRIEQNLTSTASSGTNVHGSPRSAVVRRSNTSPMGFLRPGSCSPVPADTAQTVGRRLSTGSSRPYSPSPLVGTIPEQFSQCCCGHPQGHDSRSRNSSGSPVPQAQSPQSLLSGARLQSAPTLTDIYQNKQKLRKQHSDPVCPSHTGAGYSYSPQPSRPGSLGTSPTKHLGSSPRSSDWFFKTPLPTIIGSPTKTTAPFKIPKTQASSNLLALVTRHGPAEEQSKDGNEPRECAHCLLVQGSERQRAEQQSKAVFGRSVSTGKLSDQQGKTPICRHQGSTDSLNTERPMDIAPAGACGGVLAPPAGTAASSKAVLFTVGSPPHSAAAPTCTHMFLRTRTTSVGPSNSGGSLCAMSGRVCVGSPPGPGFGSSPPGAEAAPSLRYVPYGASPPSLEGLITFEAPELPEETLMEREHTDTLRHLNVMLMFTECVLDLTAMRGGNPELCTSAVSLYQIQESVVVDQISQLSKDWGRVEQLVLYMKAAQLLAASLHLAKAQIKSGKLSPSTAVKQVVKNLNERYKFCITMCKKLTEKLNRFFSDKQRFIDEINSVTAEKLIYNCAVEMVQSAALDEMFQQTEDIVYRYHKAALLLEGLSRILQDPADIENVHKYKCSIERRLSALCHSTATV
Interleukin-1 receptor-associated kinase 1 (Homo sapiens), sequence (P51617 whole entry, looked up): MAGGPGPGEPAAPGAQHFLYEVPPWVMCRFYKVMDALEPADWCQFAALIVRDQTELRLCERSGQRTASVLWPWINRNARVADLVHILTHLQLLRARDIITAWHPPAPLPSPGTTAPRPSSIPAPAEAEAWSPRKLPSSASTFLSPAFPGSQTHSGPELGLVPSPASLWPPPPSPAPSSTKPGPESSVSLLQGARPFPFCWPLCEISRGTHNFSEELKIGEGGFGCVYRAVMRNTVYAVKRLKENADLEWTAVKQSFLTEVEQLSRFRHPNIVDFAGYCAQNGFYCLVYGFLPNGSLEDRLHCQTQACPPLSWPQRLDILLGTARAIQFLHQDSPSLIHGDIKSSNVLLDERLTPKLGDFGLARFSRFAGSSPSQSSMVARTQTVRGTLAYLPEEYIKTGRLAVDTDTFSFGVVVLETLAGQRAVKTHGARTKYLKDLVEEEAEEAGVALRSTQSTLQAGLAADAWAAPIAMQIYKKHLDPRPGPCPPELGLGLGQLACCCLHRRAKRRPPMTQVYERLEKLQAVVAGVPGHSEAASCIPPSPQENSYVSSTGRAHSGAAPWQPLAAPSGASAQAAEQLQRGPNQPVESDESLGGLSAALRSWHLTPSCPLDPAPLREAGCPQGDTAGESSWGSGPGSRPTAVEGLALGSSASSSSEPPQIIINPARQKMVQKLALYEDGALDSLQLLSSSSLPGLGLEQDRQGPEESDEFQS
Phosphorylase b kinase gamma catalytic chain, liver/testis isoform (Homo sapiens), P15735 [F290L], sequence (P15735 whole entry F290L, the tested form may be a part, canonical isoform): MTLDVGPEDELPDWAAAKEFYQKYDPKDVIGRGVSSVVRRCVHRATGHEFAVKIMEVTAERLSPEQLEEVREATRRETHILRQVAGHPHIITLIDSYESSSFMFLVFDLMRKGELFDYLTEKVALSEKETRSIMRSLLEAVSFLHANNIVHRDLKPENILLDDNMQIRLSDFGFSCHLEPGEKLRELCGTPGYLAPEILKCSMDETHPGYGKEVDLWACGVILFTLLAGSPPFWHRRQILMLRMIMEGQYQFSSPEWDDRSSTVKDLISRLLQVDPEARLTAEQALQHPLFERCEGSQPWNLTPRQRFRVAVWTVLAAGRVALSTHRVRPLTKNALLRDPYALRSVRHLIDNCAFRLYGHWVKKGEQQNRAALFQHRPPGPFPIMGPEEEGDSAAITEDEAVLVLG

For `C=CS(=O)(=O)Nc1ccc(Cc2ccc3ccccc3c2)cc1`, the inhibition [1] was 10%, the inhibition [2] was 2% and the inhibition [3] was 2%. It also gave an inhibition (Homo sapiens [4]) of -8%, an inhibition [5] of 13% and an inhibition [6] of 5%. For the same compound, the inhibition [7] was 6%, the inhibition [8] was 10% and the inhibition [9] was 2%. The inhibition [10] was 8%, the inhibition [11] was -6% and the inhibition [12] was -3%. For the same compound, the inhibition [13] was 3%, the inhibition [14] was -10% and the inhibition [15] was -6%. For the same compound, the inhibition [16] was -9%, the inhibition [17] was 4% and the inhibition [18] was -4%. The inhibition (Homo sapiens [19]) was -6%, the inhibition [20] was 9% and the inhibition [21] was 5%. For the same compound, the inhibition [22] was 2%, the inhibition (Homo sapiens [23]) was 5% and the inhibition [24] was -6%.

From ChEMBL document CHEMBL4376829, “Discovery and biological evaluation of vinylsulfonamide derivatives as highly potent, covalent TEAD autopalmitoylation inhibitors” (Eur J Med Chem, 2019)
